Reference: ChEMBL document CHEMBL1201862, “PubChem BioAssay data set” (2004)
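Test compounds were applied to cells in 96-well plates for 48 hours at 5 doses. GI50 is the concentration that inhibits growth by half.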 Activity calls are given as the source filed them. Rule as the data show it: active = GI50 up to about 1.1 µM and inactive = higher.

Key:
Assay in all cases: NCI tumour cell line growth inhibition, 48 h
786-0 = system: 786-0
COLO 205 = system: COLO 205
EKVX = system: EKVX
HCT-116 = system: HCT-116
IGROV-1 = system: IGROV-1
K562 = system: K562
MCF7 = system: MCF7
MDA-MB-231 = system: MDA-MB-231
Malme-3M = system: Malme-3M
NCI/ADR-RES = system: NCI/ADR-RES
OVCAR-5 = system: OVCAR-5
RPMI-8226 = system: RPMI-8226
SK-MEL-5 = system: SK-MEL-5
SK-OV-3 = system: SK-OV-3
SNB-19 = system: SNB-19
SNB-75 = system: SNB-75
SW-620 = system: SW-620
HL-60 = system: HL-60
OVCAR-8 = system: OVCAR-8
SF-539 = system: SF-539

| Structure (SMILES) | GI50 (786-0) | GI50 (COLO 205) | GI50 (EKVX) | GI50 (HCT-116) | GI50 (IGROV-1) | GI50 (K562) | GI50 (MCF7) | GI50 (MDA-MB-231) | GI50 (Malme-3M) | GI50 (NCI/ADR-RES) | GI50 (OVCAR-5) | GI50 (RPMI-8226) | GI50 (SK-MEL-5) | GI50 (SK-OV-3) | GI50 (SNB-19) | GI50 (SNB-75) | GI50 (SW-620) | GI50 (HL-60) | GI50 (OVCAR-8) | GI50 (SF-539) |
| --- | --- | --- | --- | --- | --- | --- | --- | --- | --- | --- | --- | --- | --- | --- | --- | --- | --- | --- | --- | --- |
| O=C(COc1ccc(OCC(=O)N2C(=O)CN(c3ccc(Cl)cc3)C2=S)cc1)N1C(=O)CN(c2ccc(Cl)cc2)C1=S | 22.9 µM (inactive) | 25.6 µM (inactive) | 6.62 µM (inactive) | 15.7 µM (inactive) | 26.6 µM (inactive) | 29.3 µM (inactive) | 34 µM (inactive) | 19.8 µM (inactive) | 41.2 µM (inactive) | 28.7 µM (inactive) | 36.1 µM (inactive) | 21.2 µM (inactive) | 16.2 µM (inactive) | 26.9 µM (inactive) | 24.4 µM (inactive) | 40.6 µM (inactive) | 31.3 µM (inactive) | – | – | – |
| CC(=O)O[C@H]1CCC2[C@@H]3CCC4Nc5oncc5C[C@]4(C)C3CC[C@@]21C (some centres not stated) | 6.5 µM (inactive) | > 10 µM (inactive) | – | 6.49 µM (inactive) | > 10 µM (inactive) | > 10 µM (inactive) | 8.55 µM (inactive) | > 10 µM (inactive) | > 10 µM (inactive) | > 10 µM (inactive) | > 10 µM (inactive) | > 10 µM (inactive) | > 10 µM (inactive) | > 10 µM (inactive) | > 10 µM (inactive) | – | > 10 µM (inactive) | 1.98 µM (inactive) | > 10 µM (inactive) | 3.94 µM (inactive) |
| O=C1CC(C(=O)O)Cc2c(Br)ccc(O)c21 (configuration not stated) | > 100 µM (inactive) | > 100 µM (inactive) | 78.2 µM (inactive) | > 100 µM (inactive) | > 100 µM (inactive) | > 100 µM (inactive) | > 100 µM (inactive) | > 100 µM (inactive) | > 100 µM (inactive) | > 100 µM (inactive) | > 100 µM (inactive) | > 100 µM (inactive) | > 100 µM (inactive) | > 100 µM (inactive) | > 100 µM (inactive) | – | – | > 100 µM (inactive) | > 100 µM (inactive) | – |
| CCOC(=O)/C=C(/N=P(c1ccccc1)(c1ccccc1)c1ccccc1)C(F)(F)F | > 10 µM (inactive) | > 10 µM (inactive) | > 10 µM (inactive) | > 10 µM (inactive) | > 10 µM (inactive) | > 10 µM (inactive) | – | > 10 µM (inactive) | > 10 µM (inactive) | > 10 µM (inactive) | > 10 µM (inactive) | > 10 µM (inactive) | > 10 µM (inactive) | > 100 µM (inactive) | > 10 µM (inactive) | > 10 µM (inactive) | – | > 10 µM (inactive) | > 10 µM (inactive) | > 10 µM (inactive) |
| CN(C)/C=N/S(=O)(=O)c1nn2c(C=O)c(-c3ccc(Cl)cc3)nc2s1 | 1.25 µM (inactive) | 1.28 µM (inactive) | 3.28 µM (inactive) | 0.693 µM (active) | – | 0.403 µM (active) | 0.897 µM (active) | 2.11 µM (inactive) | 1.47 µM (inactive) | 2.22 µM (inactive) | 1.75 µM (inactive) | 0.785 µM (active) | 1.58 µM (inactive) | 15.8 µM (inactive) | 14.3 µM (inactive) | 11.2 µM (inactive) | 0.444 µM (active) | – | 1.31 µM (inactive) | 2.13 µM (inactive) |
| C#CC(=O)OCC#CCOC(=O)C#C | 15 µM (inactive) | 17.9 µM (inactive) | 14.2 µM (inactive) | 15.7 µM (inactive) | – | – | 20.9 µM (inactive) | 25.5 µM (inactive) | 19.1 µM (inactive) | 24.9 µM (inactive) | – | 15.1 µM (inactive) | 72.9 µM (inactive) | > 100 µM (inactive) | > 100 µM (inactive) | – | 20 µM (inactive) | – | 30.8 µM (inactive) | 15.3 µM (inactive) |
| CC1(C)COC(c2cccc(C3=NC(C)(C)CO3)c2)=N1 | > 100 µM (inactive) | > 100 µM (inactive) | > 100 µM (inactive) | > 100 µM (inactive) | > 100 µM (inactive) | > 100 µM (inactive) | > 100 µM (inactive) | > 100 µM (inactive) | > 100 µM (inactive) | > 100 µM (inactive) | > 100 µM (inactive) | > 100 µM (inactive) | > 100 µM (inactive) | – | > 100 µM (inactive) | – | > 100 µM (inactive) | – | > 100 µM (inactive) | > 100 µM (inactive) |
| O=C(O)CN1CCN2CCOCCOCCN(CC1)CCN(CC(=O)O)CC2 | > 100 µM (inactive) | > 100 µM (inactive) | > 100 µM (inactive) | > 100 µM (inactive) | > 100 µM (inactive) | > 100 µM (inactive) | > 100 µM (inactive) | > 100 µM (inactive) | > 100 µM (inactive) | > 100 µM (inactive) | > 100 µM (inactive) | > 100 µM (inactive) | > 100 µM (inactive) | > 100 µM (inactive) | > 100 µM (inactive) | > 100 µM (inactive) | > 100 µM (inactive) | – | > 100 µM (inactive) | > 100 µM (inactive) |
| S=C=Nc1ccc(CSc2nc3ccccc3[nH]2)cc1 | 19.9 µM (inactive) | 15.5 µM (inactive) | 20 µM (inactive) | 24 µM (inactive) | 18.2 µM (inactive) | 39.4 µM (inactive) | – | 23.3 µM (inactive) | 17.6 µM (inactive) | 18 µM (inactive) | 18.2 µM (inactive) | 23.2 µM (inactive) | 15.9 µM (inactive) | 21.6 µM (inactive) | 25.9 µM (inactive) | 12.9 µM (inactive) | 17.3 µM (inactive) | 36.5 µM (inactive) | 17.8 µM (inactive) | 18.8 µM (inactive) |
| Cn1c2ccccc2c(=S)c2ccccc21 | > 100 µM (inactive) | > 100 µM (inactive) | > 100 µM (inactive) | > 100 µM (inactive) | > 100 µM (inactive) | > 100 µM (inactive) | > 100 µM (inactive) | > 100 µM (inactive) | – | > 100 µM (inactive) | > 100 µM (inactive) | > 100 µM (inactive) | > 100 µM (inactive) | > 100 µM (inactive) | > 100 µM (inactive) | > 100 µM (inactive) | > 100 µM (inactive) | – | > 100 µM (inactive) | > 100 µM (inactive) |
| CCSc1[nH]c(Nc2nc(-c3ccccc3)n(-c3ccccc3)n2)c(C(N)=O)c1C(N)=O | > 10 µM (inactive) | > 10 µM (inactive) | > 10 µM (inactive) | – | > 10 µM (inactive) | > 10 µM (inactive) | > 10 µM (inactive) | > 10 µM (inactive) | > 10 µM (inactive) | – | – | > 10 µM (inactive) | > 10 µM (inactive) | > 10 µM (inactive) | – | 9.44 µM (inactive) | > 10 µM (inactive) | > 10 µM (inactive) | 6.64 µM (inactive) | – |
| CC(C)(CO)NC(=O)c1cccs1 | > 100 µM (inactive) | > 100 µM (inactive) | > 100 µM (inactive) | > 100 µM (inactive) | > 100 µM (inactive) | > 100 µM (inactive) | > 100 µM (inactive) | > 100 µM (inactive) | > 100 µM (inactive) | > 100 µM (inactive) | > 100 µM (inactive) | > 100 µM (inactive) | > 100 µM (inactive) | > 100 µM (inactive) | > 100 µM (inactive) | – | > 100 µM (inactive) | > 100 µM (inactive) | > 100 µM (inactive) | – |
| COCOc1cc(OC)ccc1C/C=N/O | > 100 µM (inactive) | > 100 µM (inactive) | > 100 µM (inactive) | > 100 µM (inactive) | > 100 µM (inactive) | > 100 µM (inactive) | > 100 µM (inactive) | > 100 µM (inactive) | > 100 µM (inactive) | > 100 µM (inactive) | > 100 µM (inactive) | – | > 100 µM (inactive) | > 100 µM (inactive) | > 100 µM (inactive) | – | > 100 µM (inactive) | > 100 µM (inactive) | > 100 µM (inactive) | > 100 µM (inactive) |
| Cc1ccc(/C=C2\CN(C)CC3C2=NN(c2ccccc2)C3c2ccc(C)cc2)cc1 (configuration not stated) | > 100 µM (inactive) | > 100 µM (inactive) | 76.7 µM (inactive) | > 100 µM (inactive) | > 100 µM (inactive) | 46.7 µM (inactive) | > 100 µM (inactive) | > 100 µM (inactive) | 36.6 µM (inactive) | > 100 µM (inactive) | > 10 µM (inactive) | – | > 100 µM (inactive) | 63.8 µM (inactive) | 74.6 µM (inactive) | – | > 100 µM (inactive) | – | > 100 µM (inactive) | – |
| Nc1nc(NNc2ccccc2F)cc(=O)[nH]1 | 58.1 µM (inactive) | 97.1 µM (inactive) | > 100 µM (inactive) | > 100 µM (inactive) | > 100 µM (inactive) | 58.6 µM (inactive) | > 100 µM (inactive) | > 100 µM (inactive) | > 100 µM (inactive) | > 100 µM (inactive) | > 100 µM (inactive) | 54.2 µM (inactive) | > 100 µM (inactive) | – | > 100 µM (inactive) | – | > 100 µM (inactive) | 56.8 µM (inactive) | > 100 µM (inactive) | > 100 µM (inactive) |
| CCCCNC(=S)Nc1nc(C(=O)NNC(=S)Nc2ccccc2)cs1 | 40.1 µM (inactive) | 32.7 µM (inactive) | > 100 µM (inactive) | > 100 µM (inactive) | – | – | > 100 µM (inactive) | 30.3 µM (inactive) | – | > 100 µM (inactive) | > 100 µM (inactive) | > 100 µM (inactive) | 40.4 µM (inactive) | > 100 µM (inactive) | > 100 µM (inactive) | 38.3 µM (inactive) | > 100 µM (inactive) | – | > 100 µM (inactive) | > 100 µM (inactive) |
